Experimental data taken from paper PMC11786100, “Chronic GIPR agonism results in pancreatic islet GIPR functional desensitisation” (Molecular Metabolism, 2025).
Where two headings read alike, the source gives them in different places.

Key:
[1] = tested on: murine hypothalamic neurons; experiment: cADDis cAMP imaging in primary hypothalamic neurons; assay type: cell-based, mouse; conditions: 5-minute stimulation, n=4
Procedure: (§1) Primary cultures of mouse hypothalamic neurons and dispersed pancreatic islets were transduced with the Green Up cADDis biosensor (Montana Molecular, US). Pancreatic islets from CAMPER^Pdx−1-CreERT2 and CAMPER^Som-Cre mice were not transduced. Cells were pre-treated with peptides as specified, dissolved in culture media. Following 4 h or overnight incubation and a 1-hour washout period, cells were imaged using an epifluorescence microscope at baseline (t = 3 min), following peptide addition (t = 10 min, unless specified otherwise), and following 3-isobutyl-1-methylxanthine (IBMX) (500 μM) and forskolin (FSK) (50 μM) addition (t = 3 min) to maximally stimulate the sensor. In pre-treatment experiments, islet cell fluorescence was normalised to the IBMX/FSK response which was set as 100%. In non-pre-treatment experiments, islet and neuronal cell fluorescence was normalised to both the baseline and IBMX/FSK response. The area-under-the-curve (AUC) for each cell was quantified. Full details of isolation, transduction, plating, imaging and image analysis is provided in the supplementary methods.
Primary cultures of hypothalamic neurons were prepared from 6-week-old male and female mice as described previously [2*]. A minor difference was that the neuronal pellet was resuspended in Neurobasal-A medium containing 0.25% Glutamax, 2% B27 and 25 ng/ml NGF (all Thermo Fisher, UK) (neuronal culture media).
Hypothalamic neurons: 100 μL cell suspension of neurons in neuronal culture media was seeded on 35 mm petri dish (MatTek Corporation), pre-coated with 0.01% poly-D-lysine hydrobromide. […]
(§2) cAMP quantification from the raw islet/neuronal images was performed using Fiji v1.54f (NIH). […] The fluorescence intensity of each ROI was measured at each time point. In pre-treatment experiments, islet cell fluorescence was normalised to the maximal IBMX/FSK response which was set as 100%. For non-pre-treatment experiments, neuronal and islet cell fluorescence were normalised to both the baseline and maximal IBMX/FSK response. The AUC during peptide stimulation for each cell was quantified. […]

GLP-1R = molecular target: T1, GLP-1R (Mus musculus, UniProt O35659); experiment: Ex vivo islet GLP-1R desensitisation (pre-treat/washout/rechallenge cAMP); assay type: cell-based; conditions: dispersed islets, cADDis
T1 construct: from tissue; host or cells: dispersed mouse pancreatic islets
T1 sequence (O35659 22-463): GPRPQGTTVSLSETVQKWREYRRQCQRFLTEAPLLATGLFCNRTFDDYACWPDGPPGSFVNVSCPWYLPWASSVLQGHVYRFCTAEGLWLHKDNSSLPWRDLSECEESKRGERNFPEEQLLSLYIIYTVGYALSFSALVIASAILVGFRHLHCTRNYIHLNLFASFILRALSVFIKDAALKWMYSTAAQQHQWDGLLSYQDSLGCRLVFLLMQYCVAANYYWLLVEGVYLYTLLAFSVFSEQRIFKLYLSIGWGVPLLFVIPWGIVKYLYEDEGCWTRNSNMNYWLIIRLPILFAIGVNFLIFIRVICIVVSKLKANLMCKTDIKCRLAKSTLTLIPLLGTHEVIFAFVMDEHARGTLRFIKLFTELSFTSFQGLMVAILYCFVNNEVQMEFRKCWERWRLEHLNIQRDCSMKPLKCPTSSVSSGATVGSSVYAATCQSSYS
Procedure: as §1, with “Full details of isolation, transduction, plating, imaging and image analysis is provided in the supplementary methods.” left out
as §2, with “For non-pre-treatment experiments, neuronal and islet cell fluorescence were normalised to both the baseline and maximal IBMX/FSK response.” left out

dispersed islet cells = experiment: cADDis cAMP concentration-response in dispersed islets; assay type: cell-based, mouse; conditions: for EC50: three-parameter fit, n=5, read-out: calculated EC50, cAMP in dispersed islets
Procedure: as §1
Dispersed islets: A cell suspension of dispersed islets in RPMI-1640 + 10% FBS + 1% P/S (islet complete media) was seeded onto square 96 well µ-plates (Ibidi, UK), coated with 0.01% poly-D-lysine hydrobromide (Sigma-Aldrich, UK) and 25 µg/ml mouse laminin (Thermo Fisher, UK). For cADDis experiments, cells were transduced with the Green Up cADDis biosensor (15 μL of cADDis, 1.5 μL of sodium butyrate per well: Montana Molecular, US). Cells were incubated overnight (37°C, 95%:5% O2:CO2 ratio).
Cells were imaged in Krebs buffer with 6 mM glucose and 0.1% BSA (unless 10% FBS was specified) at 37°C using an automated epifluorescence microscope (modified Nikon Ti-2E with LED illumination). Multiple fields of view (FOV) were imaged in parallel (for islets, multiple wells of a 96 well plate were imaged in parallel), allowing hundreds to thousands of cells to be imaged every minute throughout the time course. For all acquisitions, the first three minutes were baseline recording pre-peptide addition and the last three minutes were a positive control following IBMX (500 μM) and forskolin (50 μM) addition to maximally stimulate the sensor.
cAMP quantification from the raw islet/neuronal images was performed using Fiji v1.54f (NIH). For each acquisition, a flat-field (BaSiC [3*]) correction was applied, and intensity thresholding enabled cell-containing regions to be identified as regions-of-interest (ROIs). The fluorescence intensity of each ROI was measured at each time point. In pre-treatment experiments, islet cell fluorescence was normalised to the maximal IBMX/FSK response which was set as 100%. For non-pre-treatment experiments, neuronal and islet cell fluorescence were normalised to both the baseline and maximal IBMX/FSK response. The AUC during peptide stimulation for each cell was quantified. Neurons with an AUC greater than 75 (representing a response 15 % of the maximum IBMX/FSK response) were deemed responder neurons.
We aimed to determine appropriate pre-treatment doses of GIPR agonists which would produce detectable cAMP responses, indicating target engagement, and were compatible with an extended incubation in complete medium, which could influence ligand availability via binding to serum proteins. We first performed concentration-response analysis in dispersed islets transduced with cADDis in the presence of 10% FBS (Figure S2A, B, D, E).
To determine a sensible re-challenge dose of GIPR agonists, a further concentration-response analysis was conducted in cADDis-transduced dispersed islets in imaging buffer (Krebs buffer + 6 mM glucose + 0.1% BSA, i.e. without FBS) (Figure S2C, F). […] Therefore, 1 μM of GIP108 and 100 nM of GIP were chosen as peri-maximal re-stimulation doses for the remaining islet cAMP assays.
GLP-1R agonist pre-treatment dose selection was performed concurrently with GIPR agonist dose selection.

[2] = Peptide stability in complete medium with dispersed islet cells (cAMP bioactivity assay); assay type: in vitro ADME, mouse
Procedure: AD-293 cells were added to a 12-well plate and maintained in 2 ml complete DMEM. 1 μg of specified plasmid DNA was added to each well alongside Lipofectamine 2000 (Thermo Fisher, UK). cAMP production was quantified 24 hours following transfection using homogenous time resolved fluorescence (HTRF), specifically the cAMP-Gs Dynamic 2 kit (Cisbio, France). Peptides and cells were diluted in DMEM + 1% P/S + 0.1% BSA. For peptide stability testing, cells, fresh peptide and peptide incubated with dispersed islet cells were diluted in RPMI-1640 (Thermo Fisher, UK) + 10% FBS + 1% P/S. 10 μl of peptide and 10 μl of cell suspension were added in duplicate to an opaque 96-well plate (Grenier Bio-One, Austria) and incubated at 37°C for 30 minutes. 10 μl of cAMP-d2 and anti-cAMP cryptate, both diluted in lysis buffer, were added in quick succession as per the manufacturer’s protocol. The plates were then incubated at room temperature for 45 minutes and read using the SpectraMax i3x (Molecular Devices, US).
Three-parameter curve fitting was applied.

[3] = imaging buffer (Krebs + 6 mM glucose + 0.1% BSA, without FBS)
[4] = in the presence of 10% FBS, stepwise addition

| concentration remaining from 500 nM after 24 hours [2] | Compound | cAMP response of hypothalamic neurons ([1]; 100 nM and 1 μM) | cAMP response to GLP-1 (100 nM) after GIP108 pre-treatment (GLP-1R; 24-hour pre-treatment with GIP108 (1 μM), n=3) | doses above which cAMP responses were detectable (dispersed islet cells; [3]) | EC50 (dispersed islet cells; imaging buffer (Krebs buffer + 6 mM glucose + 0.1% BSA, without FBS)) | doses above which cAMP responses were detectable (dispersed islet cells; in the presence of 10% FBS) | EC50 (dispersed islet cells; [4]) | stability at 24 hours ([2]; 1 μM in complete medium with dispersed islet cells, cAMP bioactivity in mouse GIPR AD-293 cells) | concentration remaining from 500 nM after 24 hours ([2]; peptide at 1 μM in complete medium (RPMI-1640 + 10% FBS + 1% P/S) with dispersed islet cells, 24 h, concentrations halved during assay, read-out cAMP in mouse GIPR-expressing AD-293 cells, n=4) | cAMP response of hypothalamic neurons ([1]; 10 and 100 nM) | GLP-1R desensitisation after 4 h pre-treatment (GLP-1R; pre-treatment GLP-1 (10 nM), rechallenge GLP-1 (1 nM), n = 3) |
| --- | --- | --- | --- | --- | --- | --- | --- | --- | --- | --- | --- |
| – | CC[C@H](C)[C@H](NC(=O)[C@H](CO)NC(=O)[C@H](Cc1ccc(O)cc1)NC(=O)[C@H](CC(=O)O)NC(=O)[C@H](CO)NC(=O)[C@@H](NC(=O)[C@H](Cc1ccccc1)NC(=O)[C@@H](NC(=O)CNC(=O)[C@H](CCC(=O)O)NC(=O)C(C)(C)NC(=O)[C@@H](N)Cc1ccc(O)cc1)[C@@H](C)O)[C@@H](C)CC)C(=O)N[C@@H](C)C(=O)N[C@@H](CC(C)C)C(=O)N[C@@H](CC(=O)O)C(=O)N[C@@H](CCCCN)C(=O)N[C@H](C(=O)N[C@@H](Cc1c[nH]cn1)C(=O)N[C@@H](CCC(N)=O)C(=O)N[C@@H](CCC(N)=O)C(=O)N[C@@H](CC(=O)O)C(=O)N[C@@H](Cc1ccccc1)C(=O)N[C@H](C(=O)N[C@@H](CC(N)=O)C(=O)N[C@@H](Cc1c[nH]c2ccccc12)C(=O)N[C@@H](CC(C)C)C(=O)N[C@@H](CC(C)C)C(=O)N[C@@H](C)C(=O)N[C@@H](CCC(N)=O)C(=O)N[C@@H](CCCCN)C(=O)NCC(=O)N[C@@H](CCCCNC(=O)CC[C@H](NC(=O)CCCCCCCCCCCCCCCCCCC(=O)O)C(=O)O)C(=O)N[C@@H](CCCCN)C(=O)N[C@@H](CC(N)=O)C(=O)N[C@@H](CC(=O)O)C(=O)N[C@@H](Cc1c[nH]c2ccccc12)C(=O)N[C@@H](CCCCN)C(=O)N[C@@H](Cc1c[nH]cn1)C(=O)N[C@@H](CC(N)=O)C(=O)N[C@H](C(=O)N[C@H](C(=O)N[C@@H](CCC(N)=O)C(=O)O)[C@@H](C)O)[C@@H](C)CC)C(C)C)[C@@H](C)CC [GIP108] | failed to show detectable responses | small but significant decrease | above 10 nM | 0.218 µM | above 100 nM | 1.96 µM | remained partially stable at 24 hours | 215 nM | – | – |
| 0.177 nM | GLP-1(7–36)·NH2 | – | – | above 0.1 nM | – | above 0.1 nM | 0.000295 µM | – | – | significant responses | partial GLP-1R desensitisation, this was not statistically significant |
